In experiment [1] the target is T1, Serine/threonine-protein kinase TBK1 (Homo sapiens, UniProt Q9UHD2).
T1 sequence (Q9UHD2 whole entry): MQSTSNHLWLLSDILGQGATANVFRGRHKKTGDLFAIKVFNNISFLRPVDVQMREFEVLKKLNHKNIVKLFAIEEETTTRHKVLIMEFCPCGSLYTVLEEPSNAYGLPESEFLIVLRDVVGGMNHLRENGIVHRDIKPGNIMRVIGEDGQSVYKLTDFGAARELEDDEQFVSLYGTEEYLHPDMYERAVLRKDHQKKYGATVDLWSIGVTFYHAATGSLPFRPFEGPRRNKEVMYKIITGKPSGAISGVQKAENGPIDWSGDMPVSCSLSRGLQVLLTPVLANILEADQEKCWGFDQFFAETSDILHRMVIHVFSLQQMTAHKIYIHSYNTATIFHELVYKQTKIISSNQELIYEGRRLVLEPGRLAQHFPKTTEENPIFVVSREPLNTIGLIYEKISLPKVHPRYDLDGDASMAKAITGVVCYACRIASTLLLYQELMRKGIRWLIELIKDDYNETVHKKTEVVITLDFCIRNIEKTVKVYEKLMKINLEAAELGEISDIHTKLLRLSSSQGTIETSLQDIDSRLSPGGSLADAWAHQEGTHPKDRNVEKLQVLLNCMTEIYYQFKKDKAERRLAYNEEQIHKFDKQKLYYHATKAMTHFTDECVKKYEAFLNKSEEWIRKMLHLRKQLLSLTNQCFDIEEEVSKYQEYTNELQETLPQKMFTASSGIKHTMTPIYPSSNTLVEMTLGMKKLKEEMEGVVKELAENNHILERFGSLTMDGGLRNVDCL
The experiment in a line: TBK1 : The kinase assay is performed as 384-well Flashplate assay (for e.g. Topcount measurement. 0.6 nM TANK binding kinase (TBK1), 800 nM biotinylated MELK-derived peptide (Biotin-Ah-Ah-[…]) SEQ ID NO: 2 and 10 uM ATP (spiked with 0.25 uCi 33P-ATP/well) are incubated in a total volume of 50 ul (10 mM MOPS, 10 mM Mg-acetat, 0.1 mM EGTA, 1 mM DTT, 0.02% Brij35, 0.1% BSA, pH 7.5) with or without test compound for 120 Min at 30° C. The reaction is stopped with 25 ul 200 mM EDTA. After 30 Min at room temperature the liquid is removed and each well washed thrice with 100 ul 0.9% sodium chloride solution.

The target in experiment [2] is T2, Inhibitor of nuclear factor kappa-B kinase subunit epsilon (Homo sapiens, UniProt Q14164).
T2 sequence (Q14164 whole entry): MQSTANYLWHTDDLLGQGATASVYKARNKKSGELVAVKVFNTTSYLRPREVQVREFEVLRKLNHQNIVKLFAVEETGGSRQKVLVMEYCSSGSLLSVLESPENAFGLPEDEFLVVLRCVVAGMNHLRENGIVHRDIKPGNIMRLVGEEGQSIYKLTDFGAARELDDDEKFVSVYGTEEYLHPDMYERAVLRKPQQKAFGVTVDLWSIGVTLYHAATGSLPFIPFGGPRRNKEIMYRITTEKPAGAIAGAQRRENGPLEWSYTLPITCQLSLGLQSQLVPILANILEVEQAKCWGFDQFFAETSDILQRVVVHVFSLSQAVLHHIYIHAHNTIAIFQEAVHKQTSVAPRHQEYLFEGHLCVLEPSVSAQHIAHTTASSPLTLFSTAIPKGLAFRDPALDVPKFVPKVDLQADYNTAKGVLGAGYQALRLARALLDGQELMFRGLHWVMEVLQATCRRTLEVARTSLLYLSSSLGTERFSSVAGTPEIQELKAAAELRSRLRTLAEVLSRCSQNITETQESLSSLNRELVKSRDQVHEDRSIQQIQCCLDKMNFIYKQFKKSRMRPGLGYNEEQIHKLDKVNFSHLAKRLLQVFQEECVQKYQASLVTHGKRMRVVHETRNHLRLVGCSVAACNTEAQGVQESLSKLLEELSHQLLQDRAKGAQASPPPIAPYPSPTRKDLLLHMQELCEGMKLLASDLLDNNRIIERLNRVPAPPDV
The experiment in a line: IKKepsilon Flashplate Assay: The kinase assay is performed either as 384-well Flashplate assay (for e.g. Topcount measurement). 1 nM IKKepsilon, 800 nM biotinylated IkappaBalpha(19-42) peptide (Biotin-C6-C6-[…]) SEQ ID NO: 1 and 10 uM ATP (spiked with 0.3 uCi 33P-ATP/well) are incubated in a total volume of 50 ul (10 mM MOPS, 10 mM Mg-acetat, 0.1 mM EGTA, 1 mM Dithiothreitol,0.02% Brij35, 0.1% BSA, 0.1% BioStab, pH 7.5) with or without test compound for 2 hours at 30° C. The reaction is stopped with 25 ul 200 mM EDTA. After 30 Min at room temperature the liquid is removed and each well washed thrice with 100 ul 0.9% sodium chloride solution. Non-specific reaction is determined in presence of 3 uM MSC2119074 (BX-795). Radioactivity is measured with Topcount (PerkinElmer).

As usually defined, the IC50 is the point on the concentration scale where inhibition reaches its midpoint. As for `Nc1ncc(-c2cccc(C(=O)O)c2)cc1C(=O)Nc1ccncc1`, the IC50 in experiment [1] was 1100 nM; in experiment [2], 3200 nM.

The values above are taken from ChEMBL document CHEMBL3886561, “Pyridine-and pyrazine derivatives” (2016).
